In brackets after ≈: the same amount, converted by molar mass.
Legend:
Assay in all cases: ≥ marks a high value that may be exact or a test limit, other limits are often not marked, values filed in µg/mL are converted to µM
[1] = system: Micrococcus luteus ATCC 10240
[2] = system: Staphylococcus aureus ATCC 25923
[3] = system: Candida albicans ATCC 24433
[4] = system: Staphylococcus aureus VRSA2
[5] = system: Staphylococcus epidermidis ATCC 12228
[6] = system: Enterococcus faecalis ATCC 29212
[7] = system: Staphylococcus aureus VRSA1
[8] = system: Staphylococcus aureus VISA3
[9] = system: Staphylococcus aureus VISA1
[10] = system: Candida albicans ATCC 10259
[11] = system: Klebsiella pneumoniae NCIMB 9111
[12] = system: Pseudomonas aeruginosa ATCC 27853
[13] = system: Enterococcus faecium BCRC 15B0132
[14] = system: Pseudomonas putida ATCC 17426
[15] = system: Saccharomyces cerevisiae ATCC 44774
[16] = system: Cryptococcus neoformans ATCC 34881
[17] = system: Staphylococcus aureus ATCC 15752
[18] = system: Streptococcus mutans ATCC 25175
[19] = system: Bacillus subtilis ATCC 62037
[20] = system: Candida albicans ATCC 10231
[21] = system: Escherichia coli ATCC 27325
[22] = system: Salmonella enterica subsp. enterica serovar Enteritidis ATCC 13076
[23] = system: Escherichia coli BL21
[24] = system: Pasteurella multocida ATCC 6529
[25] = system: Staphylococcus aureus ATCC 29213
[26] = system: Bacillus cereus ATCC 9193
[27] = system: Salmonella enterica subsp. enterica serovar Choleraesuis CVCC 2140
[28] = system: Pseudomonas aeruginosa H374
[29] = system: Staphylococcus epidermidis
[30] = system: Pseudomonas aeruginosa H744
[31] = system: Escherichia coli UB1005
[32] = system: Salmonella enterica subsp. enterica serovar Typhimurium ATCC 14028s
[33] = system: Pseudomonas aeruginosa K799
[34] = system: Escherichia coli KF111
[35] = system: Escherichia coli KF130

Q: For CC(=O)N[C@@H](C)C(=O)N[C@@H](CCCCN)C(=O)N[C@@H](CCCN=C(N)N)C(=O)N[C@@H](Cc1cnc[nH]1)C(=O)N[C@@H](Cc1cnc[nH]1)C(=O)NCC(=O)N[C@@H](Cc1ccc(O)cc1)C(=O)N[C@@H](CCCCN)C(=O)N[C@@H](CCCN=C(N)N)C(=O)N[C@@H](CCCCN)C(=O)N[C@@H](Cc1ccccc1)C(=O)N[C@@H](Cc1cnc[nH]1)C(N)=O [AKRHHGYKRKFH], which MIC [1] is on record?
A: ≥ 47.9 µM

Q: What about the MIC [2] of the same compound?
A: 20.8 µM (≈ 33.4 µg/mL)

Q: And the MIC [3]?
A: ≥ 47.9 µM

Q: And the MIC [4]?
A: ≥ 40.9 µM

Q: What about the MIC [5] of the same compound?
A: 20.8 µM (≈ 33.4 µg/mL)

Q: What about the MIC [6] of the same compound?
A: 10.2 µM (≈ 16.4 µg/mL)

Q: What about the MIC [7] of the same compound?
A: ≥ 40.9 µM

Q: What about the MIC [8] of the same compound?
A: ≥ 40.9 µM

Q: What about the MIC [9] of the same compound?
A: ≥ 40.9 µM

Q: And the MIC [10]?
A: ≥ 47.9 µM

Q: And the MIC [11]?
A: ≥ 320 µM

Q: What about the MIC [12] of the same compound?
A: 320 µM (≈ 513 µg/mL)

Q: And the MIC [13]?
A: ≥ 40.9 µM

Q: With CC[C@H](C)[C@H](NC(=O)[C@@H]1CCCN1C(=O)[C@H](Cc1c[nH]c2ccccc12)NC(=O)[C@H](CCC(N)=O)NC(=O)[C@H](CCCCN)NC(=O)[C@@H](NC(=O)[C@@H](NC(=O)[C@@H](N)CCCCN)C(C)C)C(C)C)C(=O)NCC(=O)N[C@@H](CCCCN)C(=O)N[C@H](C(=O)N[C@H](C(=O)N[C@@H](CCCCN)C(=O)N[C@@H](CCCCN)C(=O)N[C@H](C(=O)N[C@H](C(=O)N[C@@H](CCCCN)C(=O)N[C@@H](CCCCN)C(=O)N[C@H](C(=O)N[C@H](C(=O)N[C@@H](CCCCN)C(=O)O)C(C)C)C(C)C)C(C)C)C(C)C)C(C)C)C(C)C [KVVKQWPIGKVVKKVVKKVVK] as the compound, how does the MIC [14] read?
A: 0.413 µM (≈ 1 µg/mL)

Q: And the MIC [15]?
A: 0.827 µM (≈ 2 µg/mL)

Q: And the MIC [16]?
A: 0.827 µM (≈ 2 µg/mL)

Q: What about the MIC [17] of the same compound?
A: 0.413 µM (≈ 1 µg/mL)

Q: What about the MIC [18] of the same compound?
A: 0.827 µM (≈ 2 µg/mL)

Q: What about the MIC [19] of the same compound?
A: 0.827 µM (≈ 2 µg/mL)

Q: What about the MIC [20] of the same compound?
A: 0.413 µM (≈ 1 µg/mL)

Q: What about the MIC [21] of the same compound?
A: 0.827 µM (≈ 2 µg/mL)

Q: What about the MIC [22] of the same compound?
A: 0.827 µM (≈ 2 µg/mL)

Q: Which MIC [23] does the source give for CC(C)C[C@@H]1NC(=O)CNC(=O)CNC(=O)[C@H](Cc2cnc[nH]2)NC(=O)[C@@H]2CSSC[C@@H]3NC(=O)[C@H](Cc4ccccc4)NC(=O)[C@H](CC(N)=O)NC(=O)CNC(=O)[C@H](CCC(N)=O)NC(=O)[C@H](CO)NC(=O)[C@H](CCCN=C(N)N)NC(=O)[C@@H](NC(=O)[C@H](C)NC(=O)[C@H](C)NC(=O)[C@@H](NC(=O)[C@H](CC(=O)O)NC(=O)[C@H](C)NC(=O)[C@H](Cc4ccccc4)NC(=O)[C@@H]4CCCN4C(=O)[C@H](C)NC(=O)[C@H](CC(=O)O)NC(=O)[C@H](C)NC(=O)[C@H](CO)NC(=O)CNC(=O)[C@@H]4CCCN4C(=O)[C@H](C)NC(=O)[C@H](C)NC(=O)[C@H](CCC(N)=O)NC(=O)[C@H](Cc4ccccc4)NC(=O)[C@H](CC(C)C)NC(=O)[C@H](Cc4ccccc4)NC(=O)[C@H](CC(C)C)NC(=O)[C@H](CC(C)C)NC(=O)[C@@H](N)C(C)C)[C@@H](C)O)CSSC[C@H](NC(=O)[C@H](CC(N)=O)NC(=O)[C@H](CC(C)C)NC1=O)C(=O)N[C@H](C(=O)N[C@@H](C)C(=O)N[C@@H](CCCCN)C(=O)O)CSSC[C@H](NC(=O)[C@H](C)NC(=O)CNC(=O)[C@H](C)NC(=O)[C@H](CCCN=C(N)N)NC3=O)C(=O)N1CCC[C@H]1C(=O)N1CCC[C@H]1C(=O)N[C@@H]([C@@H](C)O)C(=O)N[C@@H](Cc1ccccc1)C(=O)N[C@@H](C)C(=O)N[C@@H](C)C(=O)N[C@@H](CO)C(=O)NCC(=O)N[C@@H](CO)C(=O)N2 [VLLFLFQAAPGSADAPFADTAACRSQGNFCRAGACPPTFAASGSCHGGLLNCCAK] here?
A: ≥ 57.4 µM

Q: And the MIC [24]?
A: 14.4 µM

Q: And the MIC [25]?
A: 3.66 µM

Q: And the MIC [26]?
A: 0.97 µM

Q: What about the MIC [27] of the same compound?
A: ≥ 73.2 µM

Q: How did the MIC [28] turn out when CC[C@H](C)[C@H](NC(=O)[C@@H]1CCCN1C(=O)[C@H](CCCCN)NC(=O)[C@H](CC(C)C)NC(=O)[C@H](C)NC(=O)[C@@H](NC(=O)[C@H](Cc1ccc(O)cc1)NC(=O)[C@H](CC(C)C)NC(=O)[C@@H](NC(=O)[C@@H](NC(=O)[C@H](CCCN=C(N)N)NC(=O)[C@H](C)NC(=O)[C@@H]1CCCN1C(=O)[C@H](CO)NC(=O)[C@H](CCCCN)NC(=O)[C@H](Cc1ccccc1)NC(=O)[C@@H](NC(=O)[C@H](CCCCN)NC(=O)[C@H](CC(C)C)NC(=O)[C@H](Cc1ccccc1)NC(=O)[C@H](CO)NC(=O)[C@H](CCCCN)NC(=O)[C@H](Cc1c[nH]c2ccccc12)NC(=O)[C@@H](N)CCCCN)[C@@H](C)O)[C@@H](C)O)C(C)C)[C@@H](C)O)C(=O)N[C@@H](CO)C(=O)N[C@@H](CO)C(=O)O [KWKSFLKTFKSPARTVLYTALKPISS] was run?
A: 5.34 µM (≈ 16 µg/mL)

Q: What about the MIC [29] of the same compound?
A: 21.3 µM (≈ 64 µg/mL)

Q: And the MIC [30]?
A: 5.34 µM (≈ 16 µg/mL)

Q: And the MIC [31]?
A: 0.334 µM (≈ 1 µg/mL)

Q: And the MIC [32]?
A: 5.34 µM (≈ 16 µg/mL)

Q: What about the MIC [33] of the same compound?
A: 10.7 µM (≈ 32 µg/mL)

Q: What about the MIC [34] of the same compound?
A: 0.667 µM (≈ 2 µg/mL)

Q: And the MIC [35]?
A: 0.667 µM (≈ 2 µg/mL)
